# Test results taken from article PMC10054634, “Chemical Constituents of Thesium chinense Turcz and Their In Vitro Antioxidant, Anti-Inflammatory and Cytotoxic Activities” (Molecules, 2023).
# Tests used:
# [1] = tested on: RAW 264.7 cells
# Method: (§3) The cell viability was determined by the CCK-8 assay method. The cytotoxicity was calculated from the plotted results using untreated cells at 100%.
# [2] = DPPH radical scavenging assay; details: for SC50: concentration required for 50% reduction of DPPH radicals, 37 °C, 30 min, 517 nm, nc = SC50 cannot be calculated due to weak or no related activities; for antioxidant activity on DPPH radical scavenging (in words): compared with positive control ascorbic acid
# Method: The 2, 2-diphenyl-1-picrylhydrazyl (Aldrich Chem. Co. Ltd, Shanghai, China) radical scavenging activity assay was performed according to the previously published method with some modification. Test samples were dissolved in MeOH to six different concentrations ranging from 3.125 to 100 μM. Then, 100 μL of 100 μM DPPH in MeOH were mixed with 100 μL of samples at different concentrations in the wells of 96-well plates. The reaction mixtures were incubated in the dark at 37 °C for 30 min and then measured at 517 nm. Ascorbic acid was used as the positive control. The scavenging activity (SC) was estimated as follows: % SC = [1 − (Asample − Ablank)/Acontrol] ×100. Asample was the equivalent mixture of test sample and DPPH solution. Ablank was the equivalent mixture of test sample and MeOH solution. Acontrol was the equivalent mixture of DPPH and MeOH solution. The SC50 values were used to evaluate the antioxidant activities of isolated compounds. The experiments were performed in triplicate, and the data were expressed as the means ± SD of three independent experiments.
# [3] = tested on: NO production in LPS-activated RAW 264.7 cells; test: Inhibition of NO production in LPS-activated RAW 264.7 cells (Griess reaction); assay type: cell-based; details: Mus musculus, RAW264.7; RAW 264.7, 1 μg/mL LPS, 24 h; mean ± SD (n = 3); read-out: IC50 (NO inhibitory activity)
# Method: The macrophage RAW 264.7 cells were obtained from the Cell Bank of the Chinese Academy of Sciences (Shanghai, China). A total of 180 μL of RAW 264.7 cells (1 × 10^4) were plated respectively in each well of 96-well plate and cultured for 24 h, then the supernatant of the culture was discarded and 180 μL complete medium with 1 μg/mL LPS and different concentrations of test samples were added into triplicate wells for 24 h. The inhibition effects on LPS-stimulated NO production was evaluated by the Griess reaction assay. The experiments were performed in triplicate, and the data were expressed as the means ± SD of three independent experiments.
# [4] = tested on: A549; test: Cytotoxic assay (CCK-8), A549; assay type: cell-based, human; details: Homo sapiens, A549, 48 h, mean ± SD (n = 3)
# Method: (§1) Four human cancer cell lines, A549, NCI-H292, SiHa and MKN45, were purchased from the Cell Bank of the Chinese Academy of Sciences (Shanghai, China). […] Cisplatin (Abmole Bioscience, Shanghai, China) was used as positive control.
# (§2) A total of 180 μL of cancer cells (5 × 10^3) were plated in each well of 96-well plates and cultured for 24 h, then the supernatant of the culture was discarded and 180 μL complete medium with different concentrations of test samples were added into triplicate wells of each cell line, respectively. Thereafter, A549, NCI-H292, SiHa and MKN45 were incubated for 48 h, respectively. The cell viability was evaluated by Cell Counting Kit-8 (CCK-8, Best Bio., Beijing, China), respectively. The experiments were performed in triplicate, and the data were expressed as the means ± SD of three independent experiments.
# [5] = tested on: NCI-H292; test: Cytotoxic assay (CCK-8), NCI-H292; assay type: cell-based, human; details: Homo sapiens, NCI-H292, 48 h, mean ± SD (n = 3)
# Method: as §1, §2
# [6] = tested on: SiHa; test: Cytotoxic assay (CCK-8), SiHa; assay type: cell-based, human; details: Homo sapiens, 48 h, mean ± SD (n = 3)
# Method: as §1, §2
# [7] = tested on: MKN45; test: Cytotoxic assay (CCK-8), MKN45; assay type: cell-based, human; details: Homo sapiens, MKN-45, MKN45, 48 h, mean ± SD (n = 3)
# Method: as §1, §2
# [8] = tested on: LPS-induced acute lung injury; set-up: method as in PMID 34417573, PMID 34038447; details: mice; cited from earlier work
# [9] = Cytotoxicity in RAW 264.7 cells (CCK-8); details: mouse
# Method: as §3
Compound,IC50 [1] [µM],SC50 [2] [µM],IC50 [3] [µM],IC50 [4] [µM],IC50 [5] [µM],IC50 [6] [µM],IC50 [7] [µM],anti-inflammatory effects against LPS-induced acute lung injury [8],IC50 [9] [µM],antioxidant activity on DPPH radical scavenging (in words) [2]
scopolin [Compound 27],> 200,,,,,,,,,
"CCOC(=O)/C=C/c1ccc(O)c(OC)c1 [Compound 21, 3-O-ethyl ferulate]",,50.8 ± 1.4,28.6 ± 3,> 200,> 200,> 200,> 200,obvious anti-inflammatory effects,> 200,
"COc1cc([C@@H]2OC[C@@H](Cc3ccc(O[C@@H]4O[C@H](CO)[C@@H](O)[C@H](O)[C@H]4O)c(OC)c3)[C@H]2CO)ccc1O [Compound 19, lariciresinol-4-O-β-D-glucoside]",,48.8 ± 2.9,> 200,> 200,> 200,> 200,> 200,,> 200,significant scavenging activity
"COc1cc([C@@H](OC)[C@H](O)CO)ccc1O [Compound 26, alatusol D]",,284.0 ± 16.5,> 200,> 200,> 200,> 200,> 200,,> 200,weak antioxidant activities
"COc1cc(C2OCC3C(c4cc(OC)c(OC5OC(CO)C(O)C(O)C5O)c(OC)c4)OCC23)cc(OC)c1O [Compound 11, syringaresinol-4′-O-β-D-glucopyranoside]",,16.2 ± 1.6,> 200,> 200,> 200,> 200,> 200,,> 200,
